Assay results: US9238631B2, “Radiolabeled amino acids for diagnostic imaging” (PIRAMAL IMAGING SA, priority 2011, dated 2016)

What was measured:
[1] = test system: NCI-H460 (human NSCLC) cells; test: Cell uptake studies: 30 min uptake in H460 cells; assay type: cell-based; conditions: 0.25 MBq tracer, PBS 0.1% BSA
Experimental: For determination of the biological activity, the F18 labeled derivatives were used as tracers in cell uptake experiments. NCI-H460 (human NSCLC) cells, grown adherently in 48 well plates were used for these uptake-experiments. Approximately 100.000 cells were incubated with 0.25 MBq of the tracers for 30 min in PBS-buffer containing 0.1% BSA. After this time, the cell-bound radioactivity was determined using a γ-counter.

xCT (SLC7A11) = target: T1, xCT (SLC7A11) (Homo sapiens, UniProt Q9UPY5); test: Competition profile indicating uptake via xCT (SLC7A11); assay type: cell-based; conditions: co-incubation with 1 mM cold competitors, NCI-H460 cells
T1 construct: NCI-H460 tumor cells were co-incubated with the F-18 labeled tracer and several cold derivatives; endogenous in cells; host or cells: NCI-H460 tumor cells
T1 sequence (Q9UPY5 1-501): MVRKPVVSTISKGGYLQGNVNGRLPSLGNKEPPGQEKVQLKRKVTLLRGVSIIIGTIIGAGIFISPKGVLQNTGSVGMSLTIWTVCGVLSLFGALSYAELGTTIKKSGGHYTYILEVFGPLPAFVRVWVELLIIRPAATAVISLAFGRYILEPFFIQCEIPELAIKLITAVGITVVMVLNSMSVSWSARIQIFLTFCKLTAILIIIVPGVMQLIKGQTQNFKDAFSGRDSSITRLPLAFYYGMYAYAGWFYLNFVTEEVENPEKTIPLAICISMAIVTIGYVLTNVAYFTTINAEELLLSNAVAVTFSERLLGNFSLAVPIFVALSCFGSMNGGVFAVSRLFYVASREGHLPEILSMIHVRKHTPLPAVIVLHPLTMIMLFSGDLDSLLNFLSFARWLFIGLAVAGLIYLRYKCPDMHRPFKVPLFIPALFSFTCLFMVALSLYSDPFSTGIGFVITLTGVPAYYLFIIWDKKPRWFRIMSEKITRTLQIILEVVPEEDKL
T1 sequence (P08195 1-529 partner): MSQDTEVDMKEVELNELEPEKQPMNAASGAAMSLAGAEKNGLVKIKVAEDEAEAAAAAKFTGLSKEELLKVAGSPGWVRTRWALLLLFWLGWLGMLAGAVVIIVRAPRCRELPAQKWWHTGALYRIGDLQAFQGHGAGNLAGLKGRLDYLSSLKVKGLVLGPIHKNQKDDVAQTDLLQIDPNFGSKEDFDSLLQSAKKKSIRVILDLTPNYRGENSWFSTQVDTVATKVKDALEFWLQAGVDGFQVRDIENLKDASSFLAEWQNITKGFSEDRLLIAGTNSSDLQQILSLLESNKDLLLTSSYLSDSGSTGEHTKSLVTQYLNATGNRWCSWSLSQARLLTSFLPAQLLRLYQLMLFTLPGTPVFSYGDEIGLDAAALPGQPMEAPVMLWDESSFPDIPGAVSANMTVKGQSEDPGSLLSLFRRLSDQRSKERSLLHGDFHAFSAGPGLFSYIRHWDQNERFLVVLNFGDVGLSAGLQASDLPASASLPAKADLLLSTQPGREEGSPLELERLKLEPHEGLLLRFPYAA
Experimental: For determination of the responsible uptake mechanism, NCI-H460 tumor cells were co-incubated with the F-18 labeled tracer and several cold derivatives. These derivatives were used at a concentration of 1 mM, which is a large excess compared to the tracer. L-Glutamic acid, L-cystine, Carboxyphenylglycine (CPG) were used as competitors. In addition, also D-Glutamic acid, as well as L-aspartic acid and D-aspartic acid were used in this competition experiments. […] The same experiments were performed using [^18F]-1, [^18F]-4, [^18F]-9, [^18F]-8, [^18F]-25 and [^18F]-22.

NCI-H460 tumor [2] = test: PET imaging in NCI-H460 tumor bearing nude-mice; assay type: in vivo; conditions: PET at 60 min p.i., approx. 10 MBq
Experimental: a) [^18F]-1 was examined in NCI-H460 tumor bearing nude-mice using PET-imaging. Approx. 10 MBq of the tracer was injected into the animals and PET images were acquired at 60 min p.i. for 10 minutes. The H460-tumor was very well visible in the images with 3.6% ID/g as was determined by region of interest (ROI) analysis. Except of some uptake into the bladder due to the renal excretion, no uptake into non target tissues was observed.
b) [^18F]-12 was examined in the same animal model in mice as described above. Approx. 10 MBq was injected into the animals and PET images were obtained at 60 min p.i. for 10 min. The NCI-H460 tumor was very well visible and uptake of 2.7% ID/g into the tumor was calculated by ROI analysis. Except of some uptake into the gallbladder due to a partial hepatobiliary clearance of this derivative, the majority of activity is excreted renally, resulting in a strong PET signal from the bladder. No uptake in other non-target tissues was observed.

NCI-H460 tumor [3] = test: PET imaging in NCI-H460 tumor bearing nude-rats; assay type: in vivo
How it was run: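 NCI-H460 cells were inoculated into the right flank of nude rats (RH-Foxn1 nu/nu) 8 to 10 days before imaging. PET images were acquired for 10 minutes at 60 min after injection of approximately 10 MBq tracer. Tumor, liver and kidney activity was derived by ROI analysis as %ID/g.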

N[C@@H](CCC(Cc1ccc(OCC[18F])cc1)C(=O)O)C(=O)O (stereo partly drawn) [[^18F]-12] [(2S)-2-Amino-5-[4-(2-[^18F]fluoroethoxy)benzyl]hexanedioic acid]
30 min uptake into H460 cells [%/100.000 cells] [1]: 10.5 ± 0.3 %/100.000 cells
competition profile / uptake mechanism of the tracer (xCT (SLC7A11)): specific uptake
H460 tumor uptake by ROI analysis (NCI-H460 tumor [2]): 2.7 % ID/g
Kidney (% ID/g at 1 h p.i.) (NCI-H460 tumor [3]; PET ROI analysis, 1 h p.i.): 0.9 % ID/g
Liver (% ID/g at 1 h p.i.) (NCI-H460 tumor [3]; PET ROI analysis, 1 h p.i.): 0.8 % ID/g
Tumor (Max % ID/g at 1 h p.i.) (NCI-H460 tumor [3]; PET ROI analysis, 1 h p.i.): 2.2 % ID/g
Tumor (Mean % ID/g at 1 h p.i.) (NCI-H460 tumor [3]; PET ROI analysis, 1 h p.i.): 0.9 % ID/g
H460 tumor uptake by ROI analysis (NCI-H460 tumor [3]; PET at 60 min after injection, approx. 10 MBq): 0.9 % ID/g
